Results on one compound are retold here after publication PMC12959773 (Protein & Cell, 2025).

Experiment in all cases: [2H]-cystine uptake, isotope tracking
Type in all cases: cell-based
Common to all, as to conditions: HEK293 cells transfected with SLC7A13 and SLC3A1; labelled compound

Assay [1] concerns the target T1, SLC7A13-SLC3A1 complex (Homo sapiens, UniProt Q8TCU3, S306A).
T1 construct: heterodimeric light/heavy chain transporter, dimer of heterodimers; ectopically expressed in HEK293T / HEK293 cells (Expi293 for cryo-EM); with Amino acid transporter heavy chain SLC3A1
T1 sequence (Q8TCU3 1-470 S306A): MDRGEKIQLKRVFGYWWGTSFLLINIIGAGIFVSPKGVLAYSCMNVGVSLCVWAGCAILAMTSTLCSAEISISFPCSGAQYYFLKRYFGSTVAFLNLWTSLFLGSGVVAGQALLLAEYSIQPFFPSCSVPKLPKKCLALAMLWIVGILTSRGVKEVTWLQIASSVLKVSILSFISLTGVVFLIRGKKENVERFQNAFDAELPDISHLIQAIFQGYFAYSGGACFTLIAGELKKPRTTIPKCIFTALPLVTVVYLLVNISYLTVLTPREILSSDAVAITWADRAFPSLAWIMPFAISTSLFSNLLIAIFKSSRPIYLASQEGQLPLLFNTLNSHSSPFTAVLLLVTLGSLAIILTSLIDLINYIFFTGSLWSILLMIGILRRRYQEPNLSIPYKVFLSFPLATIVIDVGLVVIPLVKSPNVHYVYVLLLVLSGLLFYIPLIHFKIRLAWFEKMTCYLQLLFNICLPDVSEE
T1 sequence (Q07837 1-685 partner): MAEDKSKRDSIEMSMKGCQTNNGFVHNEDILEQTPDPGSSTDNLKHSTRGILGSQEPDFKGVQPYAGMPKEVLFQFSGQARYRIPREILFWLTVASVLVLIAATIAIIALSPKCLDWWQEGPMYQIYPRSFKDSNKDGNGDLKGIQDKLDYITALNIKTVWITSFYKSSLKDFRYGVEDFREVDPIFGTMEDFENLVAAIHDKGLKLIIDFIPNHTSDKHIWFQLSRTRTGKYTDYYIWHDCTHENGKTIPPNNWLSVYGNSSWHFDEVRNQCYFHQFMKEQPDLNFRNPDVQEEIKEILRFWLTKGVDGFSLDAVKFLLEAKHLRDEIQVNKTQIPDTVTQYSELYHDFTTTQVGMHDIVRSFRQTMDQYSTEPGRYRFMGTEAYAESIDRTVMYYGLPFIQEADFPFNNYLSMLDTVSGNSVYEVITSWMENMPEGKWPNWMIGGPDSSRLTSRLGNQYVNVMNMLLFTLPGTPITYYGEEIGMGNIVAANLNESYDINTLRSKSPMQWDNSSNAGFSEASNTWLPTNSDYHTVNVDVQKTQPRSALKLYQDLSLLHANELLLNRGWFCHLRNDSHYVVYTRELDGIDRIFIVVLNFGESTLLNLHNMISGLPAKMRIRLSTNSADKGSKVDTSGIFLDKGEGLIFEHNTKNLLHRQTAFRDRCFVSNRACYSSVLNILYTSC

Assay [2] deals with T2, SLC7A13-SLC3A1 complex (Homo sapiens, UniProt Q8TCU3, C223A).
T2 construct: heterodimeric light/heavy chain transporter, dimer of heterodimers; ectopically expressed in HEK293T / HEK293 cells (Expi293 for cryo-EM); with Amino acid transporter heavy chain SLC3A1
T2 sequence (Q8TCU3 1-470 C223A): T1 sequence (Q8TCU3 1-470 S306A) with C223A, A306S
T2 sequence (Q07837 1-685 partner): T1 sequence (Q07837 1-685 partner)

Assay [3] deals with T3, SLC7A13-SLC3A1 complex (Homo sapiens, UniProt Q8TCU3, F216A).
T3 construct: heterodimeric light/heavy chain transporter, dimer of heterodimers; ectopically expressed in HEK293T / HEK293 cells (Expi293 for cryo-EM); with Amino acid transporter heavy chain SLC3A1
T3 sequence (Q8TCU3 1-470 F216A): T1 sequence (Q8TCU3 1-470 S306A) with F216A, A306S
T3 sequence (Q07837 1-685 partner): T1 sequence (Q07837 1-685 partner)

Assay [4] concerns the target T4, SLC7A13-SLC3A1 complex (Homo sapiens, UniProt Q8TCU3, F224A).
T4 construct: heterodimeric light/heavy chain transporter, dimer of heterodimers; ectopically expressed in HEK293T / HEK293 cells (Expi293 for cryo-EM); with Amino acid transporter heavy chain SLC3A1
T4 sequence (Q8TCU3 1-470 F224A): T1 sequence (Q8TCU3 1-470 S306A) with F224A, A306S
T4 sequence (Q07837 1-685 partner): T1 sequence (Q07837 1-685 partner)

Positions count from the first letter of the chain named.

On to `N[C@@H](CSSC[C@H](N)C(=O)O)C(=O)O` [cystine], for which the cystine uptake entry in assay [1], in assay [2], in assay [3] and in assay [4] was “mutation in any of the seven SLC7A13-specific residues to alanine significantly reduced SLC7A13’s transporter activities” each time.
